Laboratory results as given in patent publication US20220030868A1, “FUNGICIDAL HALOMETHYL KETONES AND HYDRATES” (FMC CORPORATION, priority 2018, published 2022).

Legend:
Phakopsora pachyrhizi = assay: Test A: test suspension sprayed on soybean seedlings one day before inoculation with Phakopsora pachyrhizi spores (Asian soybean rust), visual disease rating; type: in vivo; conditions: 100 = 100% disease control, 0 = no control
Excerpt: General protocol for preparing test suspensions for Tests A-C: the test compounds were first dissolved in acetone in an amount equal to 3% of the final volume and then suspended at the desired concentration (in ppm) in acetone and purified water (50/50 mix by volume) containing 250 ppm of the surfactant PEG400 (polyhydric alcohol esters). The resulting test suspensions were then used in Tests A-C.
The test solution was sprayed to the point of run-off on soybean seedlings. The following day the seedlings were inoculated with a spore suspension of Phakopsora pachyrhizi (the causal agent of Asian soybean rust) and incubated in a saturated atmosphere at 22° C. for 24 h, and then moved to a growth chamber at 22° C. for 8 days, after which time visual disease ratings were made.
Results for Tests A-C are given in Table A. In the Table, a rating of 100 indicates 100% disease control and a rating of 0 indicates no disease control (relative to the controls). An asterisk “*” or a double asterisk “**” next to the rating value indicates a 50 ppm or 10 ppm test suspension was used, respectively. A dash (-) indicates the compound was not tested.

[1] = tested on: Puccinia recondita f. sp. tritici; assay: Test B: test suspension sprayed on wheat seedlings one day before inoculation with Puccinia recondita f. sp. tritici spores (wheat leaf rust), disease rating; type: in vivo; conditions: 100 = 100% disease control, 0 = no control
Excerpt: General protocol for preparing test suspensions for Tests A-C: the test compounds were first dissolved in acetone in an amount equal to 3% of the final volume and then suspended at the desired concentration (in ppm) in acetone and purified water (50/50 mix by volume) containing 250 ppm of the surfactant PEG400 (polyhydric alcohol esters). The resulting test suspensions were then used in Tests A-C. The test solution was sprayed to the point of run-off on wheat seedlings. The following day the seedlings were inoculated with a spore suspension of Puccinia recondita f. sp. tritici (the causal agent of wheat leaf rust) and incubated in a saturated atmosphere at 20° C. for 24 h, and then moved to a growth chamber at 20° C. for 6 days, after which time disease ratings were made. Results for Tests A-C are given in Table A. In the Table, a rating of 100 indicates 100% disease control and a rating of 0 indicates no disease control (relative to the controls). An asterisk “*” or a double asterisk “**” next to the rating value indicates a 50 ppm or 10 ppm test suspension was used, respectively. A dash (-) indicates the compound was not tested.

[2] = Phakopsora pachyrhizi, 10 ppm test suspension

| SMILES | Test A rating (disease control) (Phakopsora pachyrhizi; 10 ppm test suspension) | Test B rating (disease control) ([1]; 10 ppm test suspension) | also measured |
| --- | --- | --- | --- |
| CCO/C(=C\Oc1cccc(Cn2cc(C(=O)O)cn2)c1)C(F)(F)F [compound 323] |  |  | Test A rating (disease control) (Phakopsora pachyrhizi; 50 ppm test suspension): 100%; Test B rating (disease control) ([1]; 50 ppm test suspension): 0% |
| C#CCO/C(=C\Oc1ccc(Cn2cc(C(=O)OCC)cn2)cc1)C(F)(F)F [compound 56] | 38% | 0% |  |
| C=CCOC(=O)c1ccc(O/C=C(\OCC)C(F)(F)F)cc1 [compound 74] | 0% | 0% |  |
| CCO/C(=C\Oc1ccc(Cn2cc(Br)cn2)cc1)C(F)(F)F [compound 183] | 0% | 0% |  |
| CCOC(=O)c1cnn(Cc2ccc(OCC(O)(O)C(F)(F)F)cc2)c1 [Compound 1, ethyl 1-[[4-(3,3,3-trifluoro-2,2-dihydroxypropoxy)phenyl]methyl]-1H-pyrazole-4-carboxylate] |  |  | pest or weed control at 250 ppm (Phakopsora pachyrhizi; Phakopsora pachyrhizi, 250 ppm test suspension): 100%; pest or weed control at 250 ppm ([1]; 250 ppm test suspension): 91% |
| CCCOC(=O)c1cnn(Cc2ccc(OCC(O)(O)C(F)(F)F)cc2)c1 [Compound 42] | 99% | 85% |  |
| CCO/C(=C\Oc1ccc(Cc2ccnc(OCC[Si](C)(C)C)n2)cc1)C(F)(F)F [compound 313] |  |  | Test A rating (disease control) (Phakopsora pachyrhizi; 50 ppm test suspension): 0%; Test B rating (disease control) ([1]; 50 ppm test suspension): 0% |
| CCOC(=O)NCc1ccc(OCC2(C(F)(F)F)OCCO2)cc1 [compound 78] | 94% | 0% |  |
| N#Cc1cnn(Cc2ccc(OCC3(C(F)(F)F)OCCO3)cc2)c1 [compound 209] | 89% | 0% |  |
| CCO/C(=C\Oc1ccc(Cc2nc(C(=O)NCC3CC3)cs2)cc1)C(F)(F)F [compound 130] | 100% | 0% |  |
| CCO/C(=C\Oc1cccc(Cn2cc(C(=O)OC)cn2)c1)C(F)(F)F [Compound 330, methyl 1-[[3-[[(1Z)-2-ethoxy-3,3,3-trifluoro-1-propen-1-yl]oxy]phenyl]methyl]-1H-pyrazole-4-carboxylate] |  |  | pest or weed control at 10 ppm (Phakopsora pachyrhizi; [2]): 100%; pest or weed control at 10 ppm ([1]; 10 ppm test suspension): 0% |
| CON(Cc1ccc(OCC2(C(F)(F)F)OCCO2)cc1)C(=O)C(C)C [compound 235] | 97% | 0% |  |
| CCO/C(=C\Oc1ccc(Cn2cc(Cl)cn2)cc1)C(F)(F)F [compound 180] | 0% | 0% |  |
| CCOC(=O)c1cnn(Cc2cccc(O/C=C(\OCC)C(F)(F)F)c2C)c1 [compound 303] |  |  | pest or weed control at 50 ppm (Phakopsora pachyrhizi; Phakopsora pachyrhizi, 50 ppm test suspension): 0%; pest or weed control at 50 ppm ([1]; 50 ppm test suspension): 0% |
| NCc1ccc(OCC2(C(F)(F)F)OCCO2)cc1 [compound 174] | 0% | 0% |  |
| CC=CCOC(=O)c1cnn(Cc2ccc(OCC3(C(F)(F)F)OCCO3)cc2)c1 [compound 285] | 100% | 0% |  |
| CCO/C(=C\Oc1ccc(Cc2ncc(C(=O)NCC3CC3)o2)cc1)C(F)(F)F [compound 258] | 96% | 0% |  |
| O=[N+]([O-])c1cccc(OCC2(C(F)(F)F)OCCO2)c1 [compound 165] |  |  | pest or weed control at 10 ppm (Phakopsora pachyrhizi; [2]): 0%; pest or weed control at 10 ppm ([1]; 10 ppm test suspension): 0% |
| N#Cc1cnn(Cc2ccc(OCC(O)(O)C(F)(F)F)cc2)c1 [Compound 206] |  |  | Test A rating (disease control) (Phakopsora pachyrhizi; 50 ppm test suspension): 100%; Test B rating (disease control) ([1]; 50 ppm test suspension): 98% |
| CCOC(=O)c1cnn(CCCc2ccc(O/C=C(\OCC)C(F)(F)F)cc2)c1 [compound 294] | 100% | 0% |  |
| CCO/C(=C\Oc1ccc(Cn2cncc2C(=O)OC)cc1)C(F)(F)F [compound 85] | 89% | 0% |  |
| CCOC(=O)Cc1nnn(Cc2ccc(O/C=C(\OCC)C(F)(F)F)cc2)n1 [compound 83] | 82% | 0% |  |
| O=C(OCc1ccc(Cl)c(Cl)c1)c1cnn(Cc2ccc(OCC3(C(F)(F)F)OCCO3)cc2)c1 [compound 17] | 100% | 0% |  |
